The record followed here is BindingDB's records for doi:10.1016/j.bmcl.2006.10.091 (Bristol Myers Squibb, 2007).

For orientation: IC50 means the concentration at which inhibition is half-maximal. Low readings indicate higher potency, high ones lower potency.

This assay in a line: Inhibition of MDC-induced chemotaxis in L1.2 cells expressing CCR4.

`CCN(CC)C(C)CCCNc1nccc(NCc2ccc(Cl)cc2Cl)n1` (stereo unspecified) [N4-(2,4-dichlorobenzyl)-N2-(4-(diethylamino)pentyl)pyrimidine-2,4-diamine] showed an IC50 of 5 µM.
